The data set can be described thus: in vitro. As to conditions: human, hela cells, % viability.

As for `COc1cc(NS(=O)(=O)c2cc(C(=O)O)c(Cl)cc2Cl)cc(OC)c1` [CBK113162], the viability at 28.5 h, 10 µM turned out to be 98.9%.
Still for that read-out and setting: with `Cc1cc(COc2nccnc2N2CCN(CCCC#N)CC2)no1` [CBK084198] the figure was 93.5%.
On the same count and under the same terms, with `Cc1cc(C(=O)N2CCCCCC2c2nn(C)cc2Cl)on1` (stereo not drawn) [CBK285121] the figure was 107%.
As for `O=C(O)c1ccccc1-c1ccccc1C(=O)Nc1cccc(-c2nc3ccccc3o2)c1` [CBK262767], the viability at 28.5 h, 10 µM was found to be 103%.
The same measure, in the same setting: then `CC(C)NS(=O)(=O)c1ccc(NS(=O)(=O)c2cc(C(=O)O)ccc2Cl)cc1` [CBK296951], with 99.5%.
`O=C(O)c1cccc(S(=O)(=O)N2CCC(C(=O)O)CC2)c1` [CBK267199]: the viability at 28.5 h, 10 µM is 93.6%.
The same measure, in the same setting: with `Cc1nc2c3ccccc3nc(SCC(=O)Nc3ccccc3)n2n1` [CBK295205] the figure was 78.5%; with `COc1cccc(CN2CCCC[C@H]3CN(C(C)=O)C[C@H]32)c1` [CBK285510], 107%; with `c1ccc(Nc2nccc(C3CCCN(Cc4ccc5[nH]ccc5c4)C3)n2)nc1` (stereo not drawn) [CBK286093], 85.3%.
Same read-out and setting: then `Cc1ncc(C(=O)NC2(c3ccccc3F)CCCC2)c(C)n1` [CBK283274], with 84.5%; and `O=[N+]([O-])c1ccc(N2CCN(S(=O)(=O)c3ccccc3)CC2)cc1NCc1cccnc1` [CBK264415], with 96.5%.
Same read-out and setting: then `COC(=O)c1csc2nc(NCCCO)sc12` [CBK058832], with 91.4%.
In the case of `NC(=O)CCCCn1c2c(c3cccc(C(=O)O)c31)CCCCC2` [CBK034088], the viability at 28.5 h, 10 µM was found to be 104%.
For the compound `CCOc1ccc(C(=O)Nc2ccc(S(=O)(=O)N3CCN(C)CC3)cc2)cc1` [CBK269959], the viability at 28.5 h, 10 µM was determined as 85.5%.
Turning to `O=C(O)c1ccc(CSc2nnc(-c3ccccc3)n2Cc2ccccc2)cc1` [CBK265013], the viability at 28.5 h, 10 µM turned out to be 114%.
Still for that read-out and setting: then `Cn1cc(C(c2ccc(OCC(=O)O)cc2)c2cn(C)c3ccccc23)c2ccccc21` [CBK266403], with 94.5%; and `CCOc1cc(/C=N/NC(=O)CSc2nc(C)cc(C)n2)ccc1O` [CBK262405], with 96.1%.
Still for that read-out and setting: then `Cc1csc2c(N3CCSCC3)ncnc12` [CBK009169], with 100%.
On the same count and under the same terms, with `O=C(O)CSc1nc2ccc(NC(=O)c3ccccc3Cl)cc2s1` [CBK299791] the figure was 110%; with `N=C1OC2CSCC2N1C(=O)Cc1ccccc1Cl` (stereo not drawn) [CBK284516], 106%.
In the case of `COCc1nnc(Sc2ccc(C(F)(F)F)cn2)s1` [CBK115219], the viability at 28.5 h, 10 µM was determined as 100%.
Turning to `O=C(NCCCn1ccnc1)c1cc([N+](=O)[O-])cc([N+](=O)[O-])c1` [CBK261773], the viability at 28.5 h, 10 µM (bulk resorufin, single well) is 87.5%.
Turning to `CNC(=O)c1ccc(-c2cnc(NCC3CCN(C(=O)OC(C)(C)C)CC3)cn2)cc1` [CBK173726], the viability at 28.5 h, 10 µM amounted to 111%.
In the case of `COc1ccccc1N1CCN(CCC(=O)Nc2ccc(Br)c(C)c2)CC1` [CBK264218], the viability at 28.5 h, 10 µM came out at 93.6%.
Take `CCc1nc2ccc(C(=O)NCCN3CCOCC3)cn2c1N(C=O)Cc1ccc(OC)cc1` [CBK146625]: the viability at 28.5 h, 10 µM stood at 97.9%.
The same measure, in the same setting: with `OCc1ccc(-c2nccnc2N2CCCC2CO)cc1` (stereo not drawn) [CBK089053] the figure was 96.3%; with `CCC1CCCCN1S(=O)(=O)c1ccc(-n2ncc(Cl)c(Cl)c2=O)cc1` (stereo not drawn) [CBK305038], 13.9%.
Regarding `Cc1[nH]c(=O)[nH]c(=S)c1C(=O)Nc1ccc2[nH]c(C(F)(F)F)nc2c1` [CBK115494], the viability at 28.5 h, 10 µM amounted to 95.2%.
Still for that read-out and setting: with `O=C(Cc1nnn[nH]1)Nc1cccc(-c2nn[nH]n2)c1` [CBK160122] the figure was 116%; with `Cc1ccc2nc(-c3ccc(NC(=O)CSc4nnc(C)s4)cc3)sc2c1` [CBK266185], 92.5%; with `Cc1ccc(CNC(=O)OCCN2CCN(C)CC2)n1C` [CBK200287], 86.8%.
`N#CCCCN1CCC(Oc2nccnc2OCc2cccc(Br)c2)CC1` [CBK153631]: the viability at 28.5 h, 10 µM worked out at 99.1%.
With `O=C(O)COc1ccc(C=C2C(=O)c3ccccc3C2=O)cc1Cl` [CBK263857], the viability at 28.5 h, 10 µM came to 87.3%.
As to `O=[N+]([O-])c1ccc(CSc2nnc(-c3cccnc3)n2Cc2ccco2)cc1` [CBK264580], the viability at 28.5 h, 10 µM came to 106%.
On to `Cc1cc(C)c2cc(CN(CCO)Cc3nnnn3CC3CCCO3)c(=O)[nH]c2c1` (stereo not drawn) [CBK108944], for which the viability at 28.5 h, 10 µM stood at 80%.
On the same count and under the same terms, then `O=C(NC1CCN(Cn2nnc3ccccc3c2=O)CC1)C1CC1` [CBK305584], with 82.3%.
Regarding `O=C1NCCN1CCOc1nccnc1-c1cnn(Cc2ccccc2)c1` [CBK107094], the viability at 28.5 h, 10 µM is 86.3%.
On the same count and under the same terms, with `CC(=O)N[C@H]1[C@H](Oc2ccc3ccccc3c2)O[C@@H]2COC(C)(C)O[C@H]2[C@@H]1O` [CBK091644] the figure was 87%.
On the same count and under the same terms, with `CC1CCCCC12NC(=O)N(Cc1csc(-c3cccs3)n1)C2=O` (stereo not drawn) [CBK305829] the figure was 98.4%.
For the compound `CCCS(=O)(=O)n1c(=O)n(CCc2c[nH]c3ccccc23)c2ccccc21` [CBK106515], the viability at 28.5 h, 10 µM was 87.8%.
The same measure, in the same setting: with `Cc1ccc2ccccc2c1CN(/N=N/c1nonc1C)c1nonc1C` [CBK262412] the figure was 99.6%.
On to `CC1CN(c2nccn(CCOc3ccc(Br)cc3)c2=O)CCN1` (stereo not drawn) [CBK028596T], for which the viability at 28.5 h, 10 µM came to 94.2%.
The same measure, in the same setting: with `C[n+]1cn(/N=C/c2ccco2)cn1` [CBK028562I] the figure was 104%.
With `CC1CCN(C(=O)CSc2ccc3nnc(-c4ccccc4)n3n2)CC1` [CBK287512], the viability at 28.5 h, 10 µM worked out at 77.9%.
As for `O=C(NCc1cccs1)c1ccc2c(=O)n3c(nc2c1)CCN(Cc1ccccc1)CC3` [CBK286448], the viability at 28.5 h, 10 µM amounted to 100%.
Same read-out and setting: then `CN(C)c1ccc(-c2noc([C@@H]3CCCN3C)n2)cn1` [CBK288902], with 104%.
Same read-out and setting: with `COc1ccccc1N1CCN(CCc2nnc(S)n2-c2ccccc2)CC1` [CBK262212] the figure was 102%; with `Cc1cc(CN(C)Cc2c(C)nc3c(C)cccn23)n[nH]1` [CBK281716], 99.1%.
`COc1cc(C(C[N+](=O)[O-])c2c(C)[nH]c3ccccc23)ccc1O` (stereo not drawn) [CBK115317]: the viability at 28.5 h, 10 µM worked out at 82.9%.
Same read-out and setting: then `CC1=NNC(=O)C1Cc1ccc(F)cc1` (stereo not drawn) [CBK067755], with 97.4%; and `O=C(/C=C/c1ccco1)Nc1cccc2c(NC(=O)/C=C/c3ccco3)cccc12` [CBK264974], with 99.7%; and `CC(C)C(=O)N1CCCC1c1cc2n(n1)[C@@H](C(F)(F)F)C[C@@H](C)N2` (stereo partly drawn) [CBK282966], with 106%.
With `COc1ccccc1CNC(=O)c1ccc(=O)[nH]c1` [CBK288133], the viability at 28.5 h, 10 µM was 106%.
For the compound `CCCCN(C)c1nccnc1-c1ccc(CO)cc1` [CBK037666], the viability at 28.5 h, 10 µM is 92.3%.
With `CC1(C)CC(=O)C=C(C(=O)Nc2c(F)cc(F)cc2OC2CCNCC2)O1` [CBK050332T], the viability at 28.5 h, 10 µM amounted to 110%.
Consider `S=C(NCCCN1CCOCC1)Nc1cccc(Cl)c1` [CBK263255], for which the viability at 28.5 h, 10 µM came out at 95%.
Same read-out and setting: with `CN(C)c1ccc(-c2nccnc2NS(=O)(=O)c2ccc3ccccc3c2)cc1` [CBK050794] the figure was 93.4%.

The record behind these values is article PMC12040169 (PLOS Biology, 2025).
